# Patent publication US5169857A, “7-(polysubstituted pyridyl)-hept-6-endates useful for treating hyperproteinaemia, lipoproteinaemia or arteriosclerosis” (Bayer Aktiengesellschaft, priority 1988, dated 1992)
# What was measured:
# [1] = molecular target: T1, HMG-CoA reductase (3-hydroxy-3-methyl-glutaryl coenzyme A reductase) (Rattus norvegicus, UniProt P51639); assay: determination of HMG-CoA reductase enzyme activity (rat liver enzyme preparation); relative inhibitory potency vs mevinolin; conditions: relative inhibitory potency from IC50 values; IC50 of reference mevinolin set at 1; 20 min preincubation, 60 min at 37° C.
# T1 sequence (P51639 1-887): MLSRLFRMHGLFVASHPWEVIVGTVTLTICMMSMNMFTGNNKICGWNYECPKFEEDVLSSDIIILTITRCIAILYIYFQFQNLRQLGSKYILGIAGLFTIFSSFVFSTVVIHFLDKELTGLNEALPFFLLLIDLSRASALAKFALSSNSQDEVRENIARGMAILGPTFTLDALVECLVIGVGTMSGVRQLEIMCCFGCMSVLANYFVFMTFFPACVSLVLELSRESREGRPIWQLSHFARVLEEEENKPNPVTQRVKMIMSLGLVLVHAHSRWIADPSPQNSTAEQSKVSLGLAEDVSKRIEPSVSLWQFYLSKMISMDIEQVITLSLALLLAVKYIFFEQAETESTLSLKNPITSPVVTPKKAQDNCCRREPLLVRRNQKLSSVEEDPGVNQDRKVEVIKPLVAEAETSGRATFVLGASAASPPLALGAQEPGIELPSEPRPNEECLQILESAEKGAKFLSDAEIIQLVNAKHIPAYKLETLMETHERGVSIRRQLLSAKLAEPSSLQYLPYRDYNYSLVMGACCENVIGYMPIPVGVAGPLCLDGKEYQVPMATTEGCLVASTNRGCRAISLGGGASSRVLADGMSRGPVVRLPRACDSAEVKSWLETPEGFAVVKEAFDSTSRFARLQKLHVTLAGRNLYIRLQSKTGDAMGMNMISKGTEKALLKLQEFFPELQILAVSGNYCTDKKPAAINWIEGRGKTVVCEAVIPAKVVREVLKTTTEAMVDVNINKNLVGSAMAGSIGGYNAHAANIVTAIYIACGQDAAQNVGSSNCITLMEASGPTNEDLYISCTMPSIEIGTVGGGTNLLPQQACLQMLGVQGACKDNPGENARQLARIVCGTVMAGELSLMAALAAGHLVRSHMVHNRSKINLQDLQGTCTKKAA
# Protocol: Male Rico rats (body weight 300-400 g) were treated for 11 days with Altromin powdered feed, to which 40 g of colestyramine/kg of feed was added. After decapitation, the liver was removed from the animals and placed on ice. The livers were comminuted and homogenized 3 times in a Potter-Elvejem homogenizer in 3 volumes of 0.1 M saccharose, 0.05 M KCl, 0.04 M Kx Hy phosphate, 0.03 M ethylenediaminetetraacetic acid, 0.002 M dithiothreitol (SPE) buffer pH 7.2. The mixture was subsequently centrifuged for 15 minutes at 15,000* g and the sediment rejected. The supernatant was sedimented for 75 minutes at 100,000 g. The pellet is taken up in 1/4 volume of SPE buffer, homogenized once again and subsequently centrifuged again for 60 minutes at 100,000 g. The pellet is taken up using the 5-fold amount of its volume of SPE buffer, homogenized and frozen and stored at -78° C. (=enzyme solution).
# For testing, the test compounds (or mevinolin as a reference substance) were dissolved in dimethylformamide with the addition of 5% by volume of 1 N NaOH and employed in the enzyme test in various concentrations using 10 μl. The test was started after preincubation of the compound with the enzyme at 37° C. for 20 minutes. The test batch was 0.380 ml and contained 4 μmol of glucose-6-phosphate, 1.1 mg of bovine serum albumin, 2.1 μmol of dithiothreitol, 0.35 μmol of NADP, 1 unit of glucose-6-phosphate dehyrogenase 35 μmol of KxHy phosphate PH 7.2, 20 μl of enzyme preparation and 56 nmol of 3x hydroxy-3-methyl-glutarylconenzyme A (glutaryl-3-^14 C) 100,000 dpm.
# After incubation for 60 minutes at 37° C., the batch was centrifuged and 600 μl of the supernatant was applied to a 0.7×4 cm column filled with a 5-chloride 100-200 mesh (anion exchanger). It was washed with 2 ml of distilled water and 3 ml of aquasol were added to the runnings plus washing water and counted in the LKB scintillation counter. IC50 values were determined by intrapolation by plotting the percentage inhibition against the concentration of the compound in the test. To determine the relative inhibitory potency, the IC50 value of the reference substance mevinolin was set at 1 and compared with the simultaneously determined IC50 value of the test compound.
# serum cholesterol = assay: subchronic action on the blood cholesterol values of dogs in feeding experiments; type: in vivo; conditions: 8 mg/kg p.o. daily for 2 weeks; beagle dogs; colestyramine 4 g/100 g of feed throughout; vs values before administration
# Protocol: The subchronic action of the compounds according to the invention on the blood cholesterol values of dogs was tested in feeding experiments of several weeks duration. For this, the substance to be investigated was given p.o. once daily in a capsule to healthy beagle dogs together with the feed over a period of time lasting several weeks. Colestyramine (4 g/100 g of feed) as the […] sequestrant was additionally admixed in the feed during the entire experimental period, i.e. before, during and after the administration period of the substances to be investigated. Venous blood was taken from the dogs twice weekly and the serum cholesterol was determined enzymatically using a commercial test kit. The serum cholesterol values during the administration period were compared with the serum cholesterol values before the administration period (controls).
Compound,Rel. Activity (Mevinolin = 1) [1],lowering of the serum cholesterol (serum cholesterol)
"COC(=O)C[C@H](O)C[C@H](O)/C=C/c1c(C(C)C)nc(C(C)C)c(CN2CCOCC2)c1-c1ccc(F)cc1 (relative stereo) [Example 105, Methyl erythro-(E)-7-[2,6-diisopropyl-4-(4-fluorophenyl)-5-morpholinomethyl-pyrid-3-yl]-3,5-dihydroxy-hept-6-enoate]",4,
"CCC(C)(C)C(=O)OCc1c(C(C)C)nc(C(C)C)c(/C=C/[C@@H](O)C[C@@H](O)CC(=O)OC)c1-c1ccc(F)cc1 (relative stereo) [Example 70, Methyl erythro-(E)-7-[2,6-diisopropyl-5-(2,2-dimethyl-butyryloxymethyl)-4-(4-fluorophenyl)-pyrid-3-yl]-3,5-dihydroxy-hept-6-enoate]",30,
"COC(=O)C[C@H](O)C[C@H](O)/C=C/c1c(C(C)C)nc(C(C)C)c(COCc2ccccc2)c1-c1ccc(F)cc1 (relative stereo) [Example 17, Methyl erythro-(E)-7-[3-benzyloxymethyl-2,6-diisopropyl-4-(4-fluorophenyl)-pyrid-5-yl]-3,5-dihydroxy-hept-6-enoate]",20,about 66%
"CCOC(=O)c1c(C(C)C)nc(C(C)C)c(/C=C/[C@@H](O)C[C@@H](O)CC(=O)OC)c1-c1ccc(F)cc1 (relative stereo) [Example 100, Methyl erythro-(E)-7-[2,6-diisopropyl-4-(4-fluorophenyl)-5-carboxyethyl-pyrid-3-y]-3,5-dihydroxy-hept-6-enoate]",30,
"COC(=O)C[C@H](O)C[C@H](O)/C=C/c1c(C(C)C)nc(C(C)C)c(COc2ccccc2)c1-c1ccc(F)cc1 (relative stereo) [Example 89, Methyl erythro-(E)-7-[2,6-diisopropyl-4-(4-fluorophenyl)-5-phenoxymethyl-pyrid-3-yl]-3,5-dihydroxy-hept-6-enoate]",10,
"COC(=O)C[C@H](O)C[C@H](O)/C=C/c1c(C(C)C)nc(C(C)C)c(COC(C)=O)c1-c1ccc(F)cc1 (relative stereo) [Example 72, methyl erythro-(E)-7-[3-acetoxymethyl-2,6-diisopropyl-4-(4-fluorophenyl)-pyrid-5-yl]-3,5-dihydroxy-hept-6-enoate]",17,
"COCc1c(C2CC2)nc(C(C)C)c(/C=C/[C@@H](O)C[C@@H](O)CC(=O)OC)c1-c1ccc(F)cc1 (relative stereo) [Example 85, Methyl erythro-(E)-7-[6-cyclopropyl-2-isopropyl-4-(4-fluorophenyl)-5-methoxymethyl-pyrid-3-yl]-3,5-dihydroxy-hept-6-enoate]",20,
"COC(=O)C[C@H](O)C[C@H](O)/C=C/c1c(C(C)C)nc(C(C)C)c(CSCc2ccccc2)c1-c1ccc(F)cc1 (relative stereo) [Example 107, Methyl erythro-(E)-7-[2,6-diisopropyl-4-[4-fluorophenyl)-5-benzylthio-methyl-pyrid-3-yl]-3,5-dihydroxy-hept-6-enoate]",3,
"COC(=O)C[C@H](O)C[C@H](O)/C=C/c1c(-c2ccc(F)cc2)nc(C)c(C#N)c1C(C)C (relative stereo) [Example 139, Methyl erythro-(E)-7-[5-cyano-2-(4-fluorophenyl)-4-isopropyl-6-methyl-pyrid-3-yl]-3,5-dihydroxy-hept-6-enoate]",20,
COC(=O)C[C@H](O)C[C@H](O)/C=C/c1c(C(C)C)nc(C(C)C)c(-c2ccccc2)c1-c1ccc(F)cc1 (relative stereo) [Example 99],20,
